This note sets out measurements from patent publication US20250282799A1, “SUBSTITUTED PYRIDO[4,3-d]PYRIMIDINES AS KRAS MODULATORS” (Alterome Therapeutics, Inc., priority 2023, published 2025).

For orientation: IC50 means the concentration that inhibits the measured activity by half. Low readings indicate inhibition by little substance, high ones a need for much substance.

Bounds are passed on as bounds.

One assay has as its system KRAS G12V dependent lung adenocarcinoma cell line, NCI-H441. Description: Cellular pERK (Thr202/Tyr204) FRET/HTRF assay. The assay is classed as cell-based. The conditions noted are these: Homo sapiens, NCI-H441, cellular pERK HTRF, NCI-H441 (KRAS G12V) cells. A digest of the protocol:
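Read-out is a wash-free FRET sandwich immunoassay for endogenous ERK1/2 phosphorylated on Thr202/Tyr204. Signal was measured in NCI-H441 lung adenocarcinoma cells after 1 hr compound exposure at 37 °C. IC50 values come from fitted concentration-response curves.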
A general note: In TR-FRET formats the signal depends on donor and acceptor labels being close together.
In the case of `[2H]C([2H])(Oc1nc(N2CCCC[C@H]3[C@H](F)[C@H]32)c2cnc(-c3cc(N)cc4ccc(F)c(C#C)c34)c(C)c2n1)[C@@]12CCCN1C[C@H](F)C2` [Example 460, 5-Ethynyl-6-fluoro-4-(4-((1S,7R,8S)-8-fluoro-2-azabicyclo[5.1.0]octan-2-yl)-2-(((2R,7aS)-2-fluorotetrahydro-1H-pyrrolizin-7a(5H)-yl)methoxy-d2)-8-methylpyrido[4,3-d]pyrimidin-7-yl)naphthalen-2-amine], the IC50 was less than 0.05 µM.
Take `[2H]C([2H])(Oc1nc(N2CCCC[C@H]3[C@H](F)[C@H]32)c2cnc(-c3cc(O)cc4ccc(F)c(C#C)c34)c(C)c2n1)[C@@]12CCCN1CC(=C)C2` [Example 461, 5-Ethynyl-6-fluoro-4-(4-((1S,7R,8S)-8-fluoro-2-azabicyclo[5.1.0]octan-2-yl)-8-methyl-2-(((S)-2-methylenetetrahydro-1H-pyrrolizin-7a(5H)-yl)methoxy-d2)pyrido[4,3-d]pyrimidin-7-yl)naphthalen-2-ol]: the IC50 is less than 0.05 µM.
In the case of `[2H]C([2H])(Oc1nc(N2CCCC[C@H]3[C@H](F)[C@H]32)c2cnc(-c3cc(O)cc4ccc(F)c(C#C)c34)c(C)c2n1)[C@]12CC(=C)CN1CCC21CC1` [Example 462, 5-Ethynyl-6-fluoro-4-(4-((1S,7R,8S)-8-fluoro-2-azabicyclo[5.1.0]octan-2-yl)-8-methyl-2-(((R)-6′-methylenetetrahydrospiro[cyclopropane-1,1′-pyrrolizin]-7a′(5′H)-yl)methoxy-d2)pyrido[4,3-d]pyrimidin-7-yl)naphthalen-2-ol], the IC50 is less than 0.05 µM.
In turn, `[2H]C([2H])(Oc1nc(N2CCCC[C@H]3[C@H](F)[C@H]32)c2cnc(-c3cc(O)cc4ccc(F)c(C#C)c34)c(C)c2n1)[C@@]12CCCN1C[C@H](F)C2` [Example 463, 5-Ethynyl-6-fluoro-4-(4-((1S,7R,8S)-8-fluoro-2-azabicyclo[5.1.0]octan-2-yl)-2-(((2R,7aS)-2-fluorotetrahydro-1H-pyrrolizin-7a(5H)-yl)methoxy-d2)-8-methylpyrido[4,3-d]pyrimidin-7-yl)naphthalen-2-ol] gave an IC50 of less than 0.05 µM.
For the compound `[2H]C([2H])(Oc1nc(N2CCCC[C@H]3[C@H](Cl)[C@H]32)c2cnc(-c3cc(N)cc4ccc(F)c(C#C)c34)c(C)c2n1)[C@@]12CCCN1C[C@H](F)C2` [Example 464, 4-(4-((1S,7R,8S)-8-chloro-2-azabicyclo[5.1.0]octan-2-yl)-2-(((2R,7aS)-2-fluorotetrahydro-1H-pyrrolizin-7a(5H)-yl)methoxy-d2)-8-methylpyrido[4,3-d]pyrimidin-7-yl)-5-ethynyl-6-fluoronaphthalen-2-amine], the IC50 is less than 0.05 µM.
For `[2H]C([2H])(Oc1nc(N2CCCC[C@@H]3[C@@H](Cl)[C@@H]32)c2cnc(-c3cc(N)cc4ccc(F)c(C#C)c34)c(C)c2n1)[C@@]12CCCN1C[C@H](F)C2` [Example 465, 4-(4-((1R,7S,8R)-8-chloro-2-azabicyclo[5.1.0]octan-2-yl)-2-(((2R,7aS)-2-fluorotetrahydro-1H-pyrrolizin-7a(5H)-yl)methoxy-d2)-8-methylpyrido[4,3-d]pyrimidin-7-yl)-5-ethynyl-6-fluoronaphthalen-2-amine], the IC50 lay within 0.5 to 10 µM.
Still for that read-out and setting: under `[2H]C([2H])(Oc1nc(N2CCOC[C@H]3[C@H](F)[C@H]32)c2cc(Cl)c(-c3ccc(F)c4sc(N)c(C#N)c34)c(C)c2n1)[C@@]12CCCN1C[C@H](F)C2` [Example 470, 2-amino-4-(6-chloro-4-((1S,7S,8S)-8-fluoro-5-oxa-2-azabicyclo[5.1.0]octan-2-yl)-2-(((2R,7aS)-2-fluorotetrahydro-1H-pyrrolizin-7a(5H)-yl)methoxy-d2)-8-methylquinazolin-7-yl)-7-fluorobenzo[b]thiophene-3-carbonitrile] stands less than 0.05 µM; under `[2H]C([2H])(Oc1nc(N2CCOC[C@H]3[C@H](F)[C@H]32)c2cnc(-c3cc(O)cc4ccc(F)c(C#C)c34)c(C)c2n1)[C@@]12CCCN1[C@H](C)[C@H](F)C2` [Example 471, 5-ethynyl-6-fluoro-4-(2-(((2R,3R,7aS)-2-fluoro-3-methyltetrahydro-1H-pyrrolizin-7a(5H)-yl)methoxy-d2)-4-((1S,7S,8S)-8-fluoro-5-oxa-2-azabicyclo[5.1.0]octan-2-yl)-8-methylpyrido[4,3-d]pyrimidin-7-yl)naphthalen-2-ol], less than 0.05 µM; under `[2H]C([2H])(Oc1nc(N2CCOC[C@H]3[C@H](F)[C@H]32)c2cnc(-c3cc(O)cc4ccc(F)c(C#C)c34)c(F)c2n1)[C@@]12CCCN1[C@H](C)[C@H](F)C2` [Example 472, 5-ethynyl-6-fluoro-4-(8-fluoro-2-(((2R,3R,7aS)-2-fluoro-3-methyltetrahydro-1H-pyrrolizin-7a(5H)-yl)methoxy-d2)-4-((1S,7S,8S)-8-fluoro-5-oxa-2-azabicyclo[5.1.0]octan-2-yl)pyrido[4,3-d]pyrimidin-7-yl)naphthalen-2-ol], less than 0.05 µM.
As to `[2H]C([2H])(Oc1nc(N2CCCC[C@H]3[C@H](F)[C@H]32)c2cnc(-c3cc(O)cc4ccc(F)c(C#C)c34)c(C)c2n1)[C@@]12CCCN1[C@H](C)[C@H](F)C2` [Example 473, 5-ethynyl-6-fluoro-4-(2-(((2R,3R,7aS)-2-fluoro-3-methyltetrahydro-1H-pyrrolizin-7a(5H)-yl)methoxy-d2)-4-((1S,7R,8S)-8-fluoro-2-azabicyclo[5.1.0]octan-2-yl)-8-methylpyrido[4,3-d]pyrimidin-7-yl)naphthalen-2-ol], the IC50 was less than 0.05 µM.
Compound `[2H]C([2H])(Oc1nc(N2CCCC[C@H]3[C@H](F)[C@H]32)c2cnc(-c3cc(O)cc4ccc(F)c(C#C)c34)c(F)c2n1)[C@@]12CCCN1[C@H](C)[C@H](F)C2` [Example 474, 5-ethynyl-6-fluoro-4-(8-fluoro-2-(((2R,3R,7aS)-2-fluoro-3-methyltetrahydro-1H-pyrrolizin-7a(5H)-yl)methoxy-d2)-4-((1S,7R,8S)-8-fluoro-2-azabicyclo[5.1.0]octan-2-yl)pyrido[4,3-d]pyrimidin-7-yl)naphthalen-2-ol] had an IC50 of less than 0.05 µM.
`[2H]C([2H])(Oc1nc(N2CCOC[C@H]3[C@H](Cl)[C@H]32)c2cnc(-c3cc(O)cc4ccc(F)c(C#C)c34)c(F)c2n1)[C@@]12CCCN1[C@H](C)[C@H](F)C2` [Example 475, 4-(4-((1S,7S,8S)-8-chloro-5-oxa-2-azabicyclo[5.1.0]octan-2-yl)-8-fluoro-2-(((2R,3R,7aS)-2-fluoro-3-methyltetrahydro-1H-pyrrolizin-7a(5H)-yl)methoxy-d2)pyrido[4,3-d]pyrimidin-7-yl)-5-ethynyl-6-fluoronaphthalen-2-ol] registered an IC50 of less than 0.05 µM.
The same measure, in the same setting: under `C#Cc1c(F)ccc2cc(N)cc(-c3ncc4c(N5CCOC[C@H]6[C@H](F)[C@H]65)nc(OCC56CCN5CC(F)(F)C6)nc4c3F)c12` (stereo partly drawn) [Example 476, 4-(2-((3,3-difluoro-1-azabicyclo[3.2.0]heptan-5-yl)methoxy)-8-fluoro-4-((1S,7S,8S)-8-fluoro-5-oxa-2-azabicyclo[5.1.0]octan-2-yl)pyrido[4,3-d]pyrimidin-7-yl)-5-ethynyl-6-fluoronaphthalen-2-amine] stands less than 0.05 µM; under `C#Cc1c(F)ccc2cc(N)cc(-c3ncc4c(N5CCOC[C@H]6[C@H](F)[C@H]65)nc(OCC5CCC6COCCN65)nc4c3F)c12` (stereo partly drawn) [Example 477, 5-ethynyl-6-fluoro-4-(8-fluoro-4-((1S,7S,8S)-8-fluoro-5-oxa-2-azabicyclo[5.1.0]octan-2-yl)-2-((hexahydro-1H-pyrrolo[2,1-c][1,4]oxazin-6-yl)methoxy)pyrido[4,3-d]pyrimidin-7-yl)naphthalen-2-amine], less than 0.05 µM.

Staying with this assay, now noted: cellular pERK HTRF, NCI-H441 (KRAS G12V) cells.
For `[2H]C([2H])(Oc1nc(N2CCOC[C@H]3[C@H](F)[C@H]32)c2cc(F)c(-c3cc(O)cc4ccc(F)c(C#C)c34)c(C)c2n1)[C@@]12CCCN1C[C@H](F)C2` [Example 469, 5-ethynyl-6-fluoro-4-((S)-6-fluoro-4-((1S,7S,8S)-8-fluoro-5-oxa-2-azabicyclo[5.1.0]octan-2-yl)-2-(((2R,7aS)-2-fluorotetrahydro-1H-pyrrolizin-7a(5H)-yl)methoxy-d2)-8-methylquinazolin-7-yl)naphthalen-2-ol], the IC50 is less than 0.05 µM.
